These results are taken from patent US4125716A, “Methoxymethyl esters of substituted imidazolidinyl-3-methyl-3-cephem-4-carboxylic acids” (Bristol-Myers Company, priority 1977, dated 1978).

The Tmax is the time at which the peak concentration occurs.

Series [1] deals with Serratia marcescens A20019. As to the kind of experiment: MIC, tube dilution technique, Serratia marcescens A20019. In kind it is cell-based. To be noted: overnight, Nutrient Broth, 37° C., read-out: Minimum Inhibitory Concentration. An excerpt:
(§1) The methoxymethyl esters of hetacephalexin and hetacefadroxil are the compounds of Formula I wherein R^1 is hydrogen and hydroxy, respectively.

Series [2] concerns Enterobacter cloacae A9656. As to the kind of experiment: MIC, tube dilution technique, Enterobacter cloacae A9656. In kind it is cell-based. To be noted: overnight, Nutrient Broth, 37° C., read-out: Minimum Inhibitory Concentration.
Source text: as §1

The test system of series [3] is Klebsiella pneumoniae A15130. As to the kind of experiment: MIC, tube dilution technique, Klebsiella pneumoniae A15130. In kind it is cell-based. The text has this: (§2) […]. The methoxymethyl esters of hetacephalexin and hetacefadroxil are the compounds of Formula I wherein R^1 is hydrogen and hydroxy, respectively.
Series [4] has as its system Staphylococcus aureus A9537. As to the kind of experiment: MIC, tube dilution technique, Staphylococcus aureus A9537. In kind it is cell-based.
Source text: as §2

A further series has as its system Proteus mirabilis A9900. In words: MIC, tube dilution technique, Proteus mirabilis A9900. In kind it is cell-based.
Source text: as §2

Series [5] deals with Streptococcus pyogenes A9604. In words: MIC, tube dilution technique, Streptococcus pyogenes A9604. In kind it is cell-based.
Source text: as §2

In a further series the test system is Proteus morganii A15153. As to the kind of experiment: MIC, tube dilution technique, Proteus morganii A15153. The class given is cell-based. The settings on record: Morganella morganii, overnight, Nutrient Broth, 37° C., read-out: Minimum Inhibitory Concentration.
Source text: as §1

A further series deals with Escherichia coli A15119. In words: MIC, tube dilution technique, Escherichia coli A15119. The class given is cell-based.
Source text: as §2

The subject of series [6] is Enterobacter cloacae A9659. In words: MIC, tube dilution technique, Enterobacter cloacae A9659. The class given is cell-based. The settings on record: overnight, Nutrient Broth, 37° C., read-out: Minimum Inhibitory Concentration.
Source text: as §1

The subject of series [7] is Streptococus pneumoniae A9585. In words: MIC, tube dilution technique, Streptococcus pneumoniae A9585. The class given is cell-based. To be noted: overnight, Nutrient Broth, 37° C., read-out: Minimum Inhibitory Concentration.
Source text: as §1

Series [8] relates to Pseudomonas aeruginosa A9843A. In words: MIC, tube dilution technique, Pseudomonas aeruginosa A9843A. The class given is cell-based. The settings on record: read-out: Minimum Inhibitory Concentration.
Source text: as §2

For series [9] the following is noted: rat, in vivo, po, 200 mg/kg.
Method: (§3) The dosing solutions were stored in an ice bath, used within 6 hours of preparation and an aliquot of each solution was retained for assay.
(§4) Rats in each treatment group were administered 1 ml of dosing solution per 100 g of body weight. The four additional control rats were administered a glycerol formal:deionized water (1:1) solution (1ml/100 g b.w.) to serve as a vehicle control group.
(§5) Four rats from each treatment group and one rat from the vehicle control group were killed 15, 30, 60 and 120 minutes after dosing. The rats were killed by exsanguination at the bifurcation of the femoral arteries while they were under light ether anesthesia. Approximately 10 ml of blood were obtained from each rat in 10 ml disposable syringes which had been previously rinsed with a 1% Na heparin in 0.9% NaCl solution. Each sample was immediately transferred from the syringe, after removing the needle, to a heparinized vacutainer tube, gently inverted a few times to mix the anticoagulant and centrifuged at 3000 rpm for 5 minutes in a refrigerated centrifuge at 4° C. to separate plasma. Plasma was transferred to a polypropylene snap-cap tube and stored at -20° C. until assayed. Lungs and brains were removed immediately after exsanguination, rinsed with ice-cold 0.9% NaCl solution, blotted dry with gauze, wrapped separately in pieces of aluminum foil, placed in dry ice for quick freezing and stored at -20° C. until assayed.
(§6) Plasma samples were diluted with an equal volume of acetone and further diluted with a 1:1 mixture of acetone:1% pH6 phosphate buffer to a concentration approximating the midpoint of the standard curve. Tissues were homogenized with 2 volumes of 1% pH 6 phosphate buffer in a glass homogenizer with a motor driven teflon pestle. Equal volumes of homogenate and acetone were mixed and, following centrifugation, the supernatant was diluted for assay in a manner similar to plasma. Dosing solutions were diluted with acetone:1% pH 6 phosphate buffer (1:1) and assayed similar to plasma.
A short description of series [10]: Antibiotic concentrations of dosing solutions retained for assay (cup-plate assay, CHCl3 extract). In kind it is physicochemical. The settings on record: pH 7.4 phosphate buffer / CHCl3.
Method: as §3
Dosing solutions were diluted with acetone:1% pH 6 phosphate buffer (1:1) and assayed similar to plasma.
Series [11] in a line: Tissue levels and tissue penetration following oral administration. The class given is in vivo, male Sprague-Dawley rats. The settings on record: rat.
Method: as §3, §4
Four rats from each treatment group and one rat from the vehicle control group were killed 15, 30, 60 and 120 minutes after dosing. The rats were killed by exsanguination at the bifurcation of the femoral arteries while they were under light ether anesthesia. Approximately 10 ml of blood were obtained from each rat in 10 ml disposable syringes which had been previously rinsed with a 1% Na heparin in 0.9% NaCl solution. Each sample was immediately transferred from the syringe, after removing the needle, to a heparinized vacutainer tube, gently inverted a few times to mix the anticoagulant and centrifuged at 3000 rpm for 5 minutes in a refrigerated centrifuge at 4° C. to separate plasma. Plasma was transferred to a polypropylene snap-cap tube and stored at -20° C. until assayed. […]
Series [12] can be described thus: in vivo. To be noted: rat, po, 200 mg/kg, Lung Level.
Method: as §3, §4, §5, §6
Series [13] in a line: in vivo. To be noted: rat, po, 200 mg/kg; for Kp at 0.5 h / Kp at 1 h / Kp at 2 h / Kp at […]: Brain to Plasma Ratio.
Method: as §3, §4, §5, §6
A short description of series [14]: in vivo. To be noted: rat, po, 200 mg/kg.
Method: as §3, §4, §5, §6
For series [15] the following is noted: rat, in vivo, po, 200 mg/kg. The source holds these as a separate data set.
Method: as §3, §4, §5, §6
Series [16] is described as follows: in vivo. To be noted: rat, po, 200 mg/kg, Brain Level.
Method: as §3, §4, §5, §6
A short description of series [17]: in vivo. The settings on record: rat, po, 200 mg/kg; for concentration at 0.5 h / concentration at 1 h / concentration at 2 h: Plasma Level.
Method: as §3, §4, §5, §6
For series [18] the following is noted: cited from earlier work.
Setting [19] is: Klebsiella pneumoniae A15130, overnight, Nutrient Broth, 37° C., read-out: Minimum Inhibitory Concentration.
Setting [20] is: A9537, Staph aureus + 50% serum, A9537, overnight, Nutrient Broth, 37° C., read-out: Minimum Inhibitory Concentration.
[21] abbreviates: A9537, Staphylococcus aureus A9537, overnight, Nutrient Broth, 37° C., read-out: Minimum Inhibitory Concentration.
[22] abbreviates: Proteus mirabilis A9900, overnight, Nutrient Broth, 37° C., read-out: Minimum Inhibitory Concentration.
[23] abbreviates: Streptococcus pyogenes A9604, overnight, Nutrient Broth, 37° C., read-out: Minimum Inhibitory Concentration.
Where [24] appears, read: Escherichia coli A15119, overnight, Nutrient Broth, 37° C., read-out: Minimum Inhibitory Concentration.

SMILES strings stand for the structures. Converted amounts (≈) assume the structure as drawn. Like-named read-outs stand apart in the source and are kept apart here.

In the case of `COCOC(=O)C1=C(C)CSC2C(N3C(=O)[C@@H](c4ccc(O)cc4)NC3(C)C)C(=O)N12` (stereo partly drawn) [Methoxymethyl Ester of Hetacefadroxil], the MIC is > 125 µg/mL in [1]; 125 µg/mL (≈ 279 µM) in series [2]; 63 µg/mL (≈ 141 µM) in [3] (setting [19]); 2 µg/mL in series [4] (setting [20]); 1 µg/mL (≈ 2.23 µM) in series [4] (setting [21]); 8 µg/mL (≈ 17.9 µM) with Proteus mirabilis A9900 (setting [22]). For the same compound, the MIC in series [5] (setting [23]) is 0.25 µg/mL (≈ 0.559 µM); in the series on Proteus morganii A15153, 125 µg/mL (≈ 279 µM); in the series on Escherichia coli A15119 (setting [24]) it was 32 µg/mL (≈ 71.5 µM); in series [6] it was > 125 µg/mL; in series [7], 1 µg/mL (≈ 2.23 µM); in series [8], > 125 µg/mL.

As for `CC1=C(C(=O)O)N2C(=O)[C@@H](NC(=O)[C@H](N)c3ccccc3)[C@H]2SC1` [Cephalexin, cephalexin, reference compound], the MIC in series [1] was > 125 µg/mL; in series [2], > 125 µg/mL; in series [3] (Klebsiella pneumoniae, A15130, read-out: Minimum Inhibitory Concentration) it was 16 µg/mL (≈ 46.1 µM); in series [4] (A9537, read-out: Minimum Inhibitory Concentration, Staph aureus + 50% serum, A9537, overnight, Nutrient Broth, 37° C.), 2 µg/mL; in series [4] (A9537, read-out: Minimum Inhibitory Concentration, Staphylococcus aureus A9537, overnight, Nutrient Broth, 37° C.), 1 µg/mL (≈ 2.88 µM); in the series on Proteus mirabilis A9900 (Proteus mirabilis, A9900, read-out: Minimum Inhibitory Concentration), 4 µg/mL (≈ 11.5 µM). Further, the MIC is 0.5 µg/mL (≈ 1.44 µM) in [5] (Streptococcus pyogenes, A9604, read-out: Minimum Inhibitory Concentration); > 125 µg/mL with Proteus morganii A15153; 8 µg/mL (≈ 23 µM) with Escherichia coli A15119 (Escherichia coli, A15119, read-out: Minimum Inhibitory Concentration); > 125 µg/mL in series [6]; > 125 µg/mL in series [8].

`COCOC(=O)C1=C(C)CSC2C(N3C(=O)[C@@H](c4ccccc4)NC3(C)C)C(=O)N12` (stereo partly drawn) [Methoxymethyl Ester of Hetacephalexin]: the MIC was > 125 µg/mL in [1]; 125 µg/mL (≈ 290 µM) in series [2]; 16 µg/mL (≈ 37.1 µM) in [3] (setting [19]); 2 µg/mL in series [4] (setting [20]); 1 µg/mL (≈ 2.32 µM) in [4] (setting [21]); 8 µg/mL (≈ 18.5 µM) in the series with Proteus mirabilis A9900 (setting [22]). In addition, the MIC in [5] (setting [23]) was 0.25 µg/mL (≈ 0.579 µM); in the series on Proteus morganii A15153, 125 µg/mL (≈ 290 µM); with Escherichia coli A15119 (setting [24]) it was 8 µg/mL (≈ 18.5 µM); in series [6], 125 µg/mL (≈ 290 µM); in series [7], 1 µg/mL (≈ 2.32 µM); in series [8] it was > 125 µg/mL. In addition, the “Lung to Plasma Ratio × 100, mean” value in series [9] (15 min) is listed as 82.6; in [9] (30 min), 60.0; in series [9] (60 min) it was 67.2; in series [9] (120 min), 33.0. Besides, the “CHCl3 extractability / partition into CHCl3” value in series [10] is on record as “all of the antibiotic activity was CHCl3 extractable”. In addition, the “penetration of tissue cell membranes and blood-brain barrier compared with cephalexin” value in series [11] was “more readily penetrates tissue cell membranes and crosses the blood-brain barrier”. In addition, the concentration at 0.5 h in the series “in vivo [12]” came to 23000 ng/g; in “in vivo [12]” (mean) it was 27000 ng/g; in “in vivo [16]”, 1700 ng/g; in the series “in vivo [16]” (mean) it was 2200 ng/g; in the series “in vivo [17]” it was 40000 ng/mL; in “in vivo [17]” (mean) it was 45500 ng/mL. For the same compound, the concentration at 1 h in the series “in vivo [12]” came out at 22000 ng/g; in the series “in vivo [12]” (mean), 22300 ng/g; in the series “in vivo [16]”, 1700 ng/g; in “in vivo [16]” (mean), 1800 ng/g; in the series “in vivo [17]”, 36000 ng/mL; in the series “in vivo [17]” (mean), 34200 ng/mL. Besides, the concentration at 2 h in the series “in vivo [12]” turned out to be 4100 ng/g; in the series “in vivo [12]” (mean), 4700 ng/g; in the series “in vivo [16]”, 500 ng/g; in “in vivo [16]” (mean), 500 ng/g; in the series “in vivo [17]”, 11000 ng/mL; in the series “in vivo [17]” (mean), 14500 ng/mL. Moreover, the Tmax is ~15 min in the series “in vivo [13]”, ~15 min in the series “in vivo [14]” and ≤ 15 min in “in vivo [17]”. Besides, the values for the Kp at 0.5 h in “in vivo [13]” and in “in vivo [13]” (mean) were 0.042 and 0.047, respectively. For the same compound, the figures for the Kp at 1 h in “in vivo [13]” and in the series “in vivo [13]” (mean) were 0.047 and 0.051, respectively. Besides, the Kp at 2 h in the series “in vivo [13]” was determined as 0.046; in “in vivo [13]” (mean) it was 0.035. The results for the Kp at […] in “in vivo [13]” and in “in vivo [13]” (mean) were 0.056 and 0.058, respectively. Moreover, the Kp in the series “in vivo [13]” (brain peak as percent of plasma level) is ~0.06; in “in vivo [14]”, ~0.83. The absorption result in series [15] is reported as “rapidly absorbed”.

On to `CC1=C(C(=O)O)N2C(=O)[C@@H](NC(=O)[C@H](N)c3ccc(O)cc3)[C@H]2SC1` [Cefadroxil, cefadroxil, reference compound], for which the MIC in series [1] is > 125 µg/mL; in series [2], > 125 µg/mL; in series [3] (setting [19]), 32 µg/mL (≈ 88.1 µM); in series [4] (setting [20]) it was 2 µg/mL; in series [4] (setting [21]), 1 µg/mL (≈ 2.75 µM); in the series with Proteus mirabilis A9900 (setting [22]), 8 µg/mL (≈ 22 µM). For the same compound, the MIC in [5] (setting [23]) is 0.25 µg/mL (≈ 0.688 µM); with Proteus morganii A15153, > 125 µg/mL; in the series on Escherichia coli A15119 (setting [24]), 16 µg/mL (≈ 44 µM); in series [6], > 125 µg/mL; in [7], 1 µg/mL (≈ 2.75 µM); in series [8] it was > 125 µg/mL. Also, the lipid solubility entry in series [18] (known parent compound) is “lipid-insoluble”. In addition, the “ionization and water solubility” value in series [18] (pH of blood plasma) was “ionized, water-soluble”.
